Test results reported in US11149052B2, “2′3′-cyclic dinucleotides” (Institute of Organic Chemistry and Biochemistry, ASCR, V.V.I, priority 2018, dated 2021).
pEC50: −log10 of the molar value.

Columns and labels:
[1] = target: human wild type STING (WT STING) (Homo sapiens, UniProt Q86WV6, H232R); test: Digitonin assay using 293T wtSTING-FL reporter cells (ISRE firefly luciferase reporter); format: cell-based; details: 293T wtSTING-FL cells; 30 min in Digitonin buffer, then 5 hours; luciferase read-out; 8-point dose-response curve; read-out: Digitonin assay EC50 (μmol · l^−1) WT STING
Excerpt: Two complementary oligonucleotides of the sequence […] […] […] […] […] The oligonucleotides were mixed in equal molar amounts, hybridized, and cleaved by restriction endonucleases HindIII (cat. #. R0104S, NEB, Ipswich, USA) and BglII (cat. #R0144S, NEB, Ipswich, USA). Ultimately, they were ligated into plasmid pGL4.27 (cat. #E6651, Promega, Madison, USA) linearized with the same enzymes. As result the sequence with four ISRE sites was placed upstream of the minimum promoter of firefly luciferase reporter gene.
After 5 minutes incubation at room temperature (RT), 250 μL of the mixture was added dropwise to the cells in one well.
Transfected cells were seeded onto poly-D-lysine coated six well plates at density 50,000 cells per 1 cm^2 in DMEM medium with high glucose containing 10% heat inactivated FBS, 30 μg/mL blasticidin (cat. #ant-bl-05, InvivoGen, San Diego, USA), 0.06 mg/ml Penicillin G and 0.1 mg/ml Streptomycin Sulfate (both cat. #. L0018, Biowest, Riverside, USA). The medium was replenished every 3-4 days until visible colonies of cells resistant to blasticidin were formed.
Blasticidin resistant cells stably expressing WT STING were further transfected with […] plasmid following the same procedure as described above. […] Homogeneous culture of stably double transfected cells was prepared by limiting dilution of cells in 96 well plates and wells with cells were selected that originated from a single cell.
The medium was removed next day and three fold serial dilutions of compounds in Digitonin buffer containing 50 mmol·l^−1 HEPES (cat. #H3375, Sigma Aldrich, Czech Republic) pH 7.0, 100 mmol·l^−1 KCl, 3 mmol·l^−1 MgCl2, 0.1 mmol·l^−1 DTT (cat. #D0632, Sigma Aldrich, Czech Republic), 85 mmol·l^−1 Sucrose (cat. #S7903, Sigma Aldrich, Czech Republic), 0.2% BSA (cat. #A2153, Sigma Aldrich, Czech Republic), 1 mmol·l^−1 ATP (cat. #A1852, Sigma Aldrich, Czech Republic), 0.1 mmol·l^−1 GTP (cat. #G8877, Sigma Aldrich, Czech Republic), and 10 μg/mL Digitonin A (cat. #D141, Sigma Aldrich, Czech Republic) were added to the cells. The buffer was removed after 30 minutes incubation at 37° C. with 5% CO2, the cells were washed once with 100 μl of cultivation medium, and 100 IA of medium was added to each well. The plates with cells were incubated for 5 hours at 37° C. with 5% CO2, 50 μl of the medium was removed and 30 μl of ONE-Glo™ Luciferase Assay System reagent (cat. #E6120, Promega, Madison, USA) was added to each well. Luminesce was read on Synergy H1 (Biotek, Winooski, USA).

[2] = target: T1, WT STING (truncated human WT STING protein) (Homo sapiens, UniProt Q86WV6, H232R); test: Differential Scanning Fluorimetry with WT STING; format: binding; details: thermal shift vs apoprotein, 150 μM CDN, 0.1 mg/ml STING protein, SYPRO Orange; for ΔTm at 150 µM: read-out: DSF ΔTm (° C.) WT STING
T1 construct: truncated human WT STING or AQ STING (amino acid residues 140-343); 8xHis (N, cleaved yes); SUMO (N, cleaved yes); made in house; host or cells: E. coli Rosetta-gami B (DE3)
Procedure: (§1) Purified PCR products were cleaved with restriction enzymes BamHI (cat. #R0136S, NEB, Ipswich, USA) and NotI (cat. #R0189S, NEB, Ipswich, USA) and cloned into the pSUMO vector linearized with the identical enzymes.
(§2) DNase I (cat. #D5025, Sigma Aldrich, Czech Republic) and RNase A (cat. #R6513, Sigma Aldrich, Czech Republic) were added (final concentration […]) together with MgCl2 (final concentration 5 mmol·l^−1) to the homogenate and bacteria were lysed using French Press G-M™ High-Pressure Cell Press Homogenizer (1500 psi, 3 cycles). […] The resin was poured into a chromatography column, washed with 50 ml buffer A (50 mmol·l^−1 TrisCl (pH 8.0), 800 mmol·l^−1 NaCl, 3 mmol·l^−1β-mercaptoethanol; 10% glycerol; 20 mmol·l^−1 imidazole) and 8-His-SUMO tagged STING proteins were eluted with 15 ml buffer A containing 300 mmol·l^−1 imidazole. […] Proteins were concentrated with Amicon® Ultra-15 10 K device (cat. #UFC901008, Merck Millipore, Billerica, USA) and flash frozen in liquid N2.
(§3) Differential Scanning Fluorimetry with WT STING and AQ STING
(§4) 20 μL solutions of the reaction mixtures were pipetted in triplicates into 96 well optical reaction plates and thermal denaturation of samples were performed on real time PCR cycler (LightCycler® 480 Instrument II—Roche, Base^1, Switzerland). The first derivative of the thermal denaturation curves was performed to calculate denaturing temperatures of STING-CDN complexes and STING apoproteins. The thermal shift for each CDN was calculated by subtracting the average denaturing temperature of STING apoprotein from the average denaturing temperature of STING CDN complex.

[3] = target: T2, AQ STING (truncated human STING G230A-R293Q allelic form) (Homo sapiens, UniProt Q86WV6, G230A/H232R/R293Q); test: Differential Scanning Fluorimetry with AQ STING; format: binding; details: thermal shift vs apoprotein, 150 μM CDN, 0.1 mg/ml STING protein, SYPRO Orange; for ΔTm at 150 µM: read-out: DSF ΔTm (° C.) AQ STING
T2 construct: truncated human WT STING or AQ STING (amino acid residues 140-343); 8xHis (N, cleaved yes); SUMO (N, cleaved yes); made in house; host or cells: E. coli Rosetta-gami B (DE3)
Procedure: as §1, §2, §3, §4

Chain of human wild type STING (WT STING) (Q86WV6 whole entry H232R): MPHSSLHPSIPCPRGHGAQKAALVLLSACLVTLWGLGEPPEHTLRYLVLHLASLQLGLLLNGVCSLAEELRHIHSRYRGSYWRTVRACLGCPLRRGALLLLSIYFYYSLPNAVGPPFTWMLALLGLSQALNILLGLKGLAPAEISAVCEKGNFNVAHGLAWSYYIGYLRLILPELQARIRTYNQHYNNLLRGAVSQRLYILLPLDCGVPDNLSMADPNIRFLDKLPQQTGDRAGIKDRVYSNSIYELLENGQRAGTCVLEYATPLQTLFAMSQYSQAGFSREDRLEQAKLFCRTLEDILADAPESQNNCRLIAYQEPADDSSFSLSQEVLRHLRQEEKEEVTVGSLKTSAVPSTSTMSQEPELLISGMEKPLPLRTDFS
T1 sequence (Q86WV6 140-343 H232R): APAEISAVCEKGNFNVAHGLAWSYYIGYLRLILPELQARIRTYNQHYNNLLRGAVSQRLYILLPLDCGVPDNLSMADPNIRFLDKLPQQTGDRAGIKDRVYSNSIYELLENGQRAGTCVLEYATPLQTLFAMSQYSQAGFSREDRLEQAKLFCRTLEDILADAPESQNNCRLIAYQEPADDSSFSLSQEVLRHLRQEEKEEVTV
T2 sequence (Q86WV6 140-343 G230A/H232R/R293Q): as the sequence (Q86WV6 140-343 H232R) above, with G91A, R154Q counted along it

Row | SMILES | pEC50 [1] | DSF ΔTm (° C.) WT STING [2] [°C] | DSF ΔTm (° C.) AQ STING [3] [°C] | ΔTm at 150 µM [2] [°C] | ΔTm at 150 µM [3] [°C]
1 | Nc1nc2c(ncn2[C@@H]2O[C@@H]3COP(=O)(O)O[C@H]4[C@@H](O)[C@H](n5cnc6c(=O)[nH]c(N)nc65)O[C@@H]4COP(=O)(O)O[C@H]3[C@H]2O)c(=O)[nH]1 [3′3′-c-di-GMP, reference compound] | 5.24 | 2.6 | 7.7 |  | 
2 | Nc1nc(N)c2ncn([C@@H]3O[C@@H]4COP(=O)(O)O[C@@H]5[C@H](O)[C@@H](COP(=O)(O)CO[C@H]4[C@H]3F)O[C@H]5n3cnc4c(N)ncnc43)c2n1 [Example 26, (1R,6R,8R,9R,10R,16R,18R,19R)-18-(6-amino-9H-purin-9-yl)-8-(2,6-diamino-9H-purin-9-yl)-9-fluoro-3,13,19-trihydroxy-2,4,7,11,14,17-hexaoxa-3λ^5,13λ^5-diphosphatricyclo[14.2.1.0^6,^10]nonadecane-3,13-dione] | 6.24 |  |  | 2.1 | 7.5
3 | Nc1ncnc2c1ncn2[C@@H]1O[C@@H]2COP(=O)(O)O[C@@H]3[C@H](O)[C@@H](COP(=O)(O)CO[C@H]2[C@@H]1O)O[C@H]3n1cnc2c(N)ncnc21 [Example 11, (1R,6R,8R,9S,10S,16R,18R,19R)-8,18-bis(6-amino-9H-purin-9-yl)-3,9,13,19-tetrahydroxy-2,4,7,11,14,17-hexaoxa-3λ^5,13λ^5-diphosphatricyclo[14.2.1.0^6,^10]nonadecane-3,13-dione] | 5.60 |  |  | 2.3 | 9.1

The remaining lines, values ahead:

Row | pEC50 [1] | DSF ΔTm (° C.) WT STING [2] [°C] | DSF ΔTm (° C.) AQ STING [3] [°C] | ΔTm at 150 µM [2] [°C] | ΔTm at 150 µM [3] [°C] | SMILES
4 | 7.52 | 11.5 | 19.4 |  |  | Nc1nc2c(ncn2[C@@H]2O[C@@H]3COP(=O)(O)O[C@@H]4[C@H](O)[C@@H](COP(=O)(O)O[C@@H]2[C@@H]3O)O[C@H]4n2cnc3c(N)ncnc32)c(=O)[nH]1 [2′2′-cGAMP, reference compound]
5 | 5.21 |  |  | 1.8 | 8.9 | Nc1nc2c(ncn2[C@@H]2O[C@@H]3COP(=O)(O)CO[C@@H]4[C@H](O)[C@@H](COP(=O)(O)O[C@H]3[C@H]2F)O[C@H]4n2cnc3c(N)ncnc32)c(=O)[nH]1 [Example 7, (1R,6R,7R,8R,10R,16R,17R,19R)-8-(2-amino-6-oxo-6,9-dihydro-1H-purin-9-yl)-17-(6-amino-9H-purin-9-yl)-7-fluoro-4,13,19-trihydroxy-3,5,9,12,15,18-hexaoxa-4λ^5,13λ^5-diphosphatricyclo[14.2.1.0^6,^10]nonadecane-4,13-dione]
6 | 7.70 |  |  | 21.7 | 27.3 | Nc1nc2c(ncn2[C@@H]2O[C@@H]3COP(=O)(O)CO[C@H]4[C@@H](F)[C@H](n5cnc6c(N)ncnc65)O[C@@H]4COP(=O)(O)O[C@@H]2[C@@H]3F)c(=O)[nH]1 [Example 17, (1S,6R,8R,9R,10R,16R,18R,19R)-18-(2-amino-6-oxo-6,9-dihydro-1H-purin-9-yl)-8-(6-amino-9H-purin-9-yl)-9,19-difluoro-3,13-dihydroxy-2,4,7,11,14,17-hexaoxa-3λ^5,13λ^5-diphosphatricyclo[14.2.1.0^6,^10]nonadecane-3,13-dione]
